According to BindingDB's records for doi:10.1016/j.chembiol.2011.12.010 (Boston College, 2012):

Experiments:
Assay in all cases: In Vitro Enzyme Assay
[1] = target: cGMP-inhibited 3',5'-cyclic phosphodiesterase 3B (Homo sapiens, UniProt Q13370)
[2] = target: Dual specificity calcium/calmodulin-dependent 3',5'-cyclic nucleotide phosphodiesterase 1C (Human, UniProt Q14123)
[3] = target: T1, cGMP-dependent 3',5'-cyclic phosphodiesterase (Rattus norvegicus, UniProt Q01062)
T1 sequence (Q01062 whole entry): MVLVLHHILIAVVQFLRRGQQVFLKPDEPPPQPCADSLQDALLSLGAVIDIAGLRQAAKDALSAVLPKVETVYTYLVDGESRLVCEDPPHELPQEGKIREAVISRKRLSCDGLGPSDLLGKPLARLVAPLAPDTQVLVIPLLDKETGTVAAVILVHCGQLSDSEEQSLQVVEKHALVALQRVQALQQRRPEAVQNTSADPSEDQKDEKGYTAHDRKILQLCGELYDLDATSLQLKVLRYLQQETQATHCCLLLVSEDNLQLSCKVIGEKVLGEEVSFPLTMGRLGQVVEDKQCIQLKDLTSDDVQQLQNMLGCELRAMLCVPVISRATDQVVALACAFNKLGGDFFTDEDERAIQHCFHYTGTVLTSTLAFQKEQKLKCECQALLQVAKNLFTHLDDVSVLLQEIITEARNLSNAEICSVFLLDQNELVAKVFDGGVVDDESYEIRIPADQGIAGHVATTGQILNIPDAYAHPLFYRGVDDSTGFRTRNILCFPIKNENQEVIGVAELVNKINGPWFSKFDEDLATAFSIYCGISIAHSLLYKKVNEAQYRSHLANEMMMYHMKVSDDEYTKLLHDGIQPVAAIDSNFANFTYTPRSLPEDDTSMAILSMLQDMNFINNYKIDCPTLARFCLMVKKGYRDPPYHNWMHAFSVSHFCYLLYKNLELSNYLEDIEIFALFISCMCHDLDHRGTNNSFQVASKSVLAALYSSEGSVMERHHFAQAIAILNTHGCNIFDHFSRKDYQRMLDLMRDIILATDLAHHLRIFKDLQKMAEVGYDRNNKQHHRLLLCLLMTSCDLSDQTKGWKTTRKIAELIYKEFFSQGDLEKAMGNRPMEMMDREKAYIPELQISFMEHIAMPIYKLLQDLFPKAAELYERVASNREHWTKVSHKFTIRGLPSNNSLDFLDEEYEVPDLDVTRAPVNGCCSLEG

[4] = target: Cone cGMP-specific 3',5'-cyclic phosphodiesterase subunit alpha' (Homo sapiens, UniProt P51160)
[5] = target: Dual 3',5'-cyclic-AMP and -GMP phosphodiesterase 11A (Homo sapiens, UniProt Q9HCR9)
Chain of Dual 3',5'-cyclic-AMP and -GMP phosphodiesterase 11A (Q9HCR9 whole entry): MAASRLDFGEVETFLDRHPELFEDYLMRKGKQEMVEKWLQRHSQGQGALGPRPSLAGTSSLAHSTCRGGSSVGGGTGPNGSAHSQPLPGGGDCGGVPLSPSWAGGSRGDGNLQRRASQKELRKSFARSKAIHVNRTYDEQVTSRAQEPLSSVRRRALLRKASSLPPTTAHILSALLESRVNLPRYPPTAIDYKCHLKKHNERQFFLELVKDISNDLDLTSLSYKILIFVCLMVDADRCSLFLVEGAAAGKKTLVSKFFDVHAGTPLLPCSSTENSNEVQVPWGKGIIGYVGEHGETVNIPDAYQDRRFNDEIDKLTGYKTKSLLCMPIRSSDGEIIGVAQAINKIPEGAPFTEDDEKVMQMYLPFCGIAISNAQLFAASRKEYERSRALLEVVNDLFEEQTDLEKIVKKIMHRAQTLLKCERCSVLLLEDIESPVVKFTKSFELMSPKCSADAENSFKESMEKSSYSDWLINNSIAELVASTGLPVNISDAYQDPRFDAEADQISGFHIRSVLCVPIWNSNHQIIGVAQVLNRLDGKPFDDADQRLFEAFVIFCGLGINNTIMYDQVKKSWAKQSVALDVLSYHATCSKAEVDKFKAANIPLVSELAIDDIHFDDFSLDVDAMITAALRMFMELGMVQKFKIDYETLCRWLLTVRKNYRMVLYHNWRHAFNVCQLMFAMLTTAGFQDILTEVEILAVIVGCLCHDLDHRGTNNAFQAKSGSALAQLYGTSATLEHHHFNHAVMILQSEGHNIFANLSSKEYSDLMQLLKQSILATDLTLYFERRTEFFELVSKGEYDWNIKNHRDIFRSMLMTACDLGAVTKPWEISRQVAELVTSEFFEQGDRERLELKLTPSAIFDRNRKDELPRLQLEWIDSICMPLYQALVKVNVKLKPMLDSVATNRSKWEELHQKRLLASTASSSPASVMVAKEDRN

[6] = target: High affinity cAMP-specific 3',5'-cyclic phosphodiesterase 7A (Homo sapiens, UniProt Q13946)
Chain of High affinity cAMP-specific 3',5'-cyclic phosphodiesterase 7A (Q13946 whole entry): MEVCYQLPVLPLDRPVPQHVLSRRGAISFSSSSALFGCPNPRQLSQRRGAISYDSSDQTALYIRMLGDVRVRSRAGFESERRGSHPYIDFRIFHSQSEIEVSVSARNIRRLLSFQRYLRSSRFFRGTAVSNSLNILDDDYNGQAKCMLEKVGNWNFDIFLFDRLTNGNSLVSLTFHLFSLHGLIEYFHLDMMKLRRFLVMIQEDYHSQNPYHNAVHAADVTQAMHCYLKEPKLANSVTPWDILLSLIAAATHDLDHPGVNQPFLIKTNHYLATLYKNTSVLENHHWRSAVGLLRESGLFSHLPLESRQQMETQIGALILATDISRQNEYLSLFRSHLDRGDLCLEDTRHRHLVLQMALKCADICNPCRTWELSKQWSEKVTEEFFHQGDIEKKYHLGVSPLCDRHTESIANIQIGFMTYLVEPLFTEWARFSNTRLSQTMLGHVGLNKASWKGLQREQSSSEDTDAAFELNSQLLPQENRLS

[7] = target: cAMP and cAMP-inhibited cGMP 3',5'-cyclic phosphodiesterase 10A (Homo sapiens, UniProt Q9Y233)
Chain of cAMP and cAMP-inhibited cGMP 3',5'-cyclic phosphodiesterase 10A (Q9Y233 whole entry): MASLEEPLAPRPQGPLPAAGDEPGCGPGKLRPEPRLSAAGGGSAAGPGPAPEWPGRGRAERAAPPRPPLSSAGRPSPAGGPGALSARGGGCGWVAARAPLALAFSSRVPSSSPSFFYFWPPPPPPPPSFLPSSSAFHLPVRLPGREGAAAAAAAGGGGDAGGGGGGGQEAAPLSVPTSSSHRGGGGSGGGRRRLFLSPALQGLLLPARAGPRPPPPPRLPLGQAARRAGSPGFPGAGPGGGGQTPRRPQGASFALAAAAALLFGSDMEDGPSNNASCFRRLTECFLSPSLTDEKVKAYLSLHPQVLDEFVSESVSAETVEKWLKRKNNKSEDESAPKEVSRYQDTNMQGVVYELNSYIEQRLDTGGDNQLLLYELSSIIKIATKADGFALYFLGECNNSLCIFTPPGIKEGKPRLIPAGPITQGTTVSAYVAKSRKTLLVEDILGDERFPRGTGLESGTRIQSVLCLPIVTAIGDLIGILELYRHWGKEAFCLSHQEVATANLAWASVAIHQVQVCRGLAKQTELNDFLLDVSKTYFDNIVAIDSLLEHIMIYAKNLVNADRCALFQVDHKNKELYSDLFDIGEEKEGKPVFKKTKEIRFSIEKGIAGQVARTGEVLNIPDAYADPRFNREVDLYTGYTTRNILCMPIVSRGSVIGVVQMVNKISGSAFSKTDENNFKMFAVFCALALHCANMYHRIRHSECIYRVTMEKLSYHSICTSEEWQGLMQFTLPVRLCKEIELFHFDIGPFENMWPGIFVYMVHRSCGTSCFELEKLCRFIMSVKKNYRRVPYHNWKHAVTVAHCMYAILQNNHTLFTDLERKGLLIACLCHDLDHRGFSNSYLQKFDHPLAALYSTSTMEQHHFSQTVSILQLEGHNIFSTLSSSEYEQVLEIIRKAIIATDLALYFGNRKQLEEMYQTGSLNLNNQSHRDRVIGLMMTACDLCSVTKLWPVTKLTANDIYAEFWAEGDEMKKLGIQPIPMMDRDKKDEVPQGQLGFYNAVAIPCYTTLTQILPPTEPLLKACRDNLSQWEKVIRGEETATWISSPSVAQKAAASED

Chain of cGMP-inhibited 3',5'-cyclic phosphodiesterase 3B (Q13370 whole entry): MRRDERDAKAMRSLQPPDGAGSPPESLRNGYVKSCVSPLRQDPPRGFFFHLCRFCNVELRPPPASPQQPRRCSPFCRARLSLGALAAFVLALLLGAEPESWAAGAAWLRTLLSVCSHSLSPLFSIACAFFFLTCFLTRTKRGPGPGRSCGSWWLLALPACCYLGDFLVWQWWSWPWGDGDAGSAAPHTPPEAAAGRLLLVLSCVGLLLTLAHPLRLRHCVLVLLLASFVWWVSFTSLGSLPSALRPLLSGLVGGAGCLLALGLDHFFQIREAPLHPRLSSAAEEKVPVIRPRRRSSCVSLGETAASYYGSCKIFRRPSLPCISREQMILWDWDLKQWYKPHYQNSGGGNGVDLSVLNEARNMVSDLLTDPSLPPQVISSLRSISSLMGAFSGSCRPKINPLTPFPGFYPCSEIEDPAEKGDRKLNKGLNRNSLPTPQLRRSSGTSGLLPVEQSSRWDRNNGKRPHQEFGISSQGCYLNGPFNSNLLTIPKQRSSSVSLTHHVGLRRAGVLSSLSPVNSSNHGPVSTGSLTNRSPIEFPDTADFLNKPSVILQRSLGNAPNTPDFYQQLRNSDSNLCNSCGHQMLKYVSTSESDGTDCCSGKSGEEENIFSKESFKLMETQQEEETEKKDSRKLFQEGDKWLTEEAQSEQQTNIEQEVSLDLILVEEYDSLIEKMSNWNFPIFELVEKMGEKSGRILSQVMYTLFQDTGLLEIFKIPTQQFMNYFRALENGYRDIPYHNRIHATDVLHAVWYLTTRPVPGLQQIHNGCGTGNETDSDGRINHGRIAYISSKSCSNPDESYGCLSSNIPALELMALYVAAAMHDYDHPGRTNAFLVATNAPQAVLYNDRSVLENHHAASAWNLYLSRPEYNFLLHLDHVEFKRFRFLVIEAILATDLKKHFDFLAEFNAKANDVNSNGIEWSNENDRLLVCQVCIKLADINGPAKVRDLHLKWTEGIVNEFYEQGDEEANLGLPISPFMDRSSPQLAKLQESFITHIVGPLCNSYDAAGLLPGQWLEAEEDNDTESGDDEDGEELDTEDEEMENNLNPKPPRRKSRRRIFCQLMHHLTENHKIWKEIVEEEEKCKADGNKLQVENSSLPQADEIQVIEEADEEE
Chain of Dual specificity calcium/calmodulin-dependent 3',5'-cyclic nucleotide phosphodiesterase 1C (Q14123 whole entry): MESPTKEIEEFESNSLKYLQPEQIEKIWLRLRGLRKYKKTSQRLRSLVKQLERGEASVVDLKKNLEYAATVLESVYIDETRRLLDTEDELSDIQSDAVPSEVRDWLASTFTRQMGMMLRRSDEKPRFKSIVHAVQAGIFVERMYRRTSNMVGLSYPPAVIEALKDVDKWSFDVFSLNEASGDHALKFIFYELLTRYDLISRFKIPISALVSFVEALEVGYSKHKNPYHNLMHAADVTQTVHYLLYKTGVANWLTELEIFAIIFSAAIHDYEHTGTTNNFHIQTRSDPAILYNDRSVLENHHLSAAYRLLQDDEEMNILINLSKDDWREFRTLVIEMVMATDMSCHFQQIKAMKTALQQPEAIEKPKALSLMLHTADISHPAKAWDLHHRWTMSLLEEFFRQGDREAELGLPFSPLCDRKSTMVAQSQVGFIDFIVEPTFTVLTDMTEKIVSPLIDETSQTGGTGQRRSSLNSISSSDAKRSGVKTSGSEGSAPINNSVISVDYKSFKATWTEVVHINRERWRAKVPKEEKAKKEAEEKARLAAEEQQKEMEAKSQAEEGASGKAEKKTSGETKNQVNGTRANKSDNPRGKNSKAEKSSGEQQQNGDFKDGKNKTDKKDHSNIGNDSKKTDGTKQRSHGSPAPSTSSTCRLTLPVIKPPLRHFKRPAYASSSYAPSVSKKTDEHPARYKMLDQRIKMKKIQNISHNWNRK

Row | IC50 [1] | IC50 [2] | IC50 [3] | IC50 [4] | IC50 [5] | IC50 [6] | IC50 [7] | Compound
1 | > 100 µM | > 100 µM |  |  |  |  |  | Cc1ccccc1Nc1ncnc2c1c(-c1ccccc1)cn2-c1ccc(F)cc1
2 | > 100 µM | > 100 µM |  |  |  |  |  | CCN(CC)C(=O)c1cc(-c2cccs2)nc2c1c(C)nn2-c1ccccc1C [BC11-15]
3 | > 100 µM |  |  |  |  |  |  | CCCCSc1nc2c(c(=O)n1-c1ccccc1)SCC2 [BC11-38-1]
4 | > 100 µM | > 100 µM | 18.4 µM | 51.2 µM |  |  |  | CCC(C)Sc1nc2c(c(=O)n1-c1ccccc1)SCC2 (stereo not given) [BC11-38-2]
5 | > 100 µM | > 100 µM |  |  | 7.5 µM | 21.3 µM |  | CCCSc1nc2c(c(=O)n1-c1ccc(C)cc1)SCC2 [BC11-38-3]
6 | > 100 µM | > 100 µM |  |  | 9.9 µM |  | 5.8 µM | CCCSc1nc2c(c(=O)n1-c1ccccc1OC)SCC2 [BC11-38-4]
7 | > 100 µM | > 100 µM |  |  |  |  |  | CCCSc1nc2c(c(=O)n1-c1ccccc1)SCC2 [BC11-38]
8 |  |  |  |  | 2 µM |  |  | COc1ccc2c(c1)sc1nc(=O)n(Cc3ccccc3)c(=O)n12 [US9173884, BC11-19-1]
